The structures appear in SMILES notation. “And” between values parts separate entries of the source, which are not always exact repeats. Equal entries are not always repeated. Where two headings read alike, the source gives them in different places.

The test system of assay [1] is pH1N1 influenza virus recovered from lungs of IS mice. Put plainly: microbe, parasite or virus in culture. In kind it is cell-based.
Assay [2] concerns rec A(H1N1)pdm09. Also on record: species or system C57BL/6 mice. Conditions: mouse, in vivo.
The test system of assay [3] is rec A(H1N1)pdm09. Also noted: species or system C57BL/6 mice. Conditions: mouse, in vivo. The source holds these as a separate data set.
The test system of assay [4] is rec A(H1N1)pdm09. Conditions: mouse, in vivo.
Assay [5] deals with NA of pH1N1 influenza virus recovered from lungs of IS mice. In kind it is biochemical, influenza A(H1N1)pdm09. Conditions: read-out: NAI Assay (Oseltamivir) Mean IC50.
Assay [6] concerns rec A(H1N1)pdm09. Also noted: species or system C57BL/6 mice. Conditions: mouse, in vivo. The source holds these as a separate data set.
Another assay relates to influenza. Also noted: method as in earlier work. Conditions: infected IC young adults; cited from earlier work.

By IC50 is commonly meant the concentration needed to halve the response being measured. Consider `NC(=O)c1nc(F)cnc1O` [Favipiravir, 6-fluoro-3-hydroxy-2-pyrazinecarboxamide], for which the IC50 in assay [1] (read-out: PRA Assay (Favipiravir) IC50; virus from IS mice treated with oseltamivir 20 mg/kg + favipiravir 20 mg/kg BID, day 15; individual mice; Table 1) is 14 µM; in assay [1] (unidentified influenza virus, in Mus musculus, 288 h, virus from not treated IS mice, day 12; individual mice; Table 1 (exp 2); read-out: PRA Assay (Favipiravir) IC50), 13.8 µM; in assay [1] (unidentified influenza virus, in Mus musculus, 360 h, virus from not treated IS mice, day 15; individual mice; Table 2 (exp 3); read-out: PRA Assay (Favipiravir) IC50), 11.5 µM; in assay [1] (virus from IS mice treated with favipiravir 20 mg/kg BID, day 15; individual mice; Table 1; read-out: PRA Assay (Favipiravir) IC50), 10.6 µM and 13 µM; in assay [1] (virus from IS mice treated with favipiravir 50 mg/kg BID, day 15; individual mice; Table 2; read-out: PRA Assay (Favipiravir) IC50), 12.4 µM; in assay [1] (virus from IS mice treated with oseltamivir 20 mg/kg + favipiravir 20 mg/kg BID, day 15; individual mice; Table 1; read-out: PRA Assay (Favipiravir) IC50), 13 µM. Moreover, the IC50 is 11.6 µM and 10.4 µM and 9.5 µM in assay [1] (virus from IS mice treated with oseltamivir 20 mg/kg + favipiravir 50 mg/kg BID, day 15; individual mice; Table 2; read-out: PRA Assay (Favipiravir) IC50); 10.5 µM and 9.5 µM and 9.9 µM in assay [1] (virus from not treated IS mice, day 12; individual mice; Table 1 (exp 2); read-out: PRA Assay (Favipiravir) IC50); 8.5 µM in assay [1] (virus from not treated IS mice, day 15; individual mice; Table 2 (exp 3); read-out: PRA Assay (Favipiravir) IC50). Besides, the “favipiravir susceptibility phenotype by PRA” value in assay [1] (viruses recovered on day 15 p.i., exp 3) is “did not show a resistant phenotype”. Besides, the “MDD (mean days of death)” value was 18 in the assay on rec A(H1N1)pdm09 [2]; 13 and 16.6 in the assay with rec A(H1N1)pdm09 [2] (20 mg/kg). Moreover, the “body weight losses over a 21-day period” value with rec A(H1N1)pdm09 [2] is “reduced”. Further, the “decrease of mortality compared to the non-treated group” value in the assay on rec A(H1N1)pdm09 [2] worked out at 50%. In the assay on rec A(H1N1)pdm09 [2], this molecule showed a survival rate of 50%. For the same molecule, in the assay with rec A(H1N1)pdm09 [3], the “LVTs vs non-treated and oseltamivir-treated mice” value was “statistically lower”.
Turning to `O=P1(N(CCCl)CCCl)NCCCO1` (stereo not drawn) [CP, cyclophosphamide], in the assay on rec A(H1N1)pdm09 [4], the “development of antibodies (microneutralization)” value is on record as “none of them developed antibodies”.
On to `CCOC(=O)C1=C[C@@H](OC(CC)CC)[C@H](NC(C)=O)[C@@H](N)C1` [Oseltamivir, oseltamivir], for which the half-inhibitory concentration (IC50) in assay [5] was 0.0006 µM and 0.0008 µM. In addition, in the assay on rec A(H1N1)pdm09 [2], the “MDD (mean days of death)” value is 14.7, the “body weight losses over a 21-day period” value was “reduced” and the survival rate is reported as 50%. In addition, in the assay on rec A(H1N1)pdm09 [2] (20 mg/kg), the “MDD (mean days of death)” value was 13 and 16.6. In the assay on rec A(H1N1)pdm09 [6], the “levels of IL-6, TNF-α and IFN-γ after treatment” value was “not reduced”. In the assay on influenza, the “nasal wash levels of IL-6, TNF-α and IFN-γ” value was “reduced”.

These data come from paper PMC6266789 (Viruses, 2018).
